PMC10951066, “The self-reactive FVIII T cell repertoire in healthy individuals relies on a short set of epitopes and public clonotypes” (Frontiers in Immunology, 2024)

Key:
[1] = tested on: CD4 T cells from healthy donors; test: Large-scale CD4 T cell epitope mapping by IFN-γ ELISPOT (16 donors); type: cell-based, human
Excerpt: PBMCs were purified from the whole blood of anonymous healthy donors, who gave informed consent (Etablissement Français du Sang, Rungis, France), using Ficoll-Paque®. Monocyte-derived dendritic cells (DCs) were produced from cells isolated using Percoll gradient by 5 days of culture in AIM-V medium (Invitrogen, Villebon-sur-Yvette, France) supplemented with 1,000 U/ml recombinant human (rh) IL-4 and rhGM-CSF (both from R&D Systems, Lille, France). Mature DCs were produced by two supplementary days of culture in the presence of LPS (1 µg/ml) and R848 (10µg/ml). CD4 T cells were isolated from autologous PBMCs by positive selection using magnetic labeling with anti-CD4 mAbs conjugated to magnetic microbeads followed by magnetic cell sorting, as recommended by the manufacturer (Miltenyi Biotec, Bergisch Gladbach, Germany). Immature DCs were loaded overnight at 37 °C with either 0.2 µM of rFVIII, 0.2 µM of ovalbumin, or 0.25 µM of KLH in 96-well U-bottom plates, while mature DCs were used for FVIII peptides (10 ug/ml). CD4 T cell lines were generated in vitro in IMDM (Invitrogen) supplemented with 10% human serum, 0.24 mM glutamine, 0.55 mM asparagine, 1.5 mM arginine (all amino acids from Sigma-Aldrich), 50 U/mL penicillin/50 μg/mL of streptomycin (Invitrogen), 20 IU/mL human IL-2, and 17 IU/ml human IL-7 (premium-grade; Miltenyi Biotec) by three once-per-week rounds of stimulation of CD4 T cells (200,000 per well) with autologous DCs (20,000 per well). 10,000 lymphocytes were collected at day 19 from each T cell line (expanded T cells contained in one well) and their specificity was assessed by using IFN-g ELISPOT.
The T cell lines and APCs were plated at equal number for both stimulated and unstimulated control conditions. […] The spot number was determined by using the ELISPOT Reader System (Autoimmun Diagnostika, Ebinger, Germany). HLA restriction was assessed using monoclonal antibodies (10 μg/ml) specific to HLA-DP (B7/21), HLA-DQ (SPVL3), or HLA-DR (L243).
Based on the T cell epitope prediction software NetMHCpan4.0 ([23]), we selected 63 20-mer peptides that are predicted for their ability to bind promiscuously, with a percentile score below 10%, at least four HLA class II molecules from a selection of 15 preponderant HLA-DR alleles in our panel (as shown in ST1). […] A total of 16 healthy donors with unrelated HLA typing (ST2) were used as sources of T cells to identify FVIII-specific CD4 T cell epitopes. Specific T cell lines were generated by in vitro T cell culture using FVIII and KLH. The peptide specificity of the T cell lines raised against FVIII was assessed by two independent IFN-γ ELISPOT using peptide pools and individual peptides. […] Furthermore, four independent healthy donors were used as sources of T cells to characterize the HLA restriction and to assess the reactivity of T cell lines generated with the 18 peptides toward rFVIII. T cell lines were amplified in vitro for 28 days through stimulation with the pool of 18 peptides and then tested through IFN-γ ELISPOT.

[2] = molecular target: HLA-DRB1*1101 (Homo sapiens, UniProt P01903+P01911, A100R/A169T/A87E/I96F/K41T/L162R/M171V/P40S/Q125H/Q178H/Q39Y/Q99D/R42S/S66Y/T262R/V115G/W38E); test: Peptide-MHCII competition binding assay; details: competition ELISA, pH 5.9, peptide 90.000nM – 0.9nM, HLA-DRB1 30 nM, biotinylated peptide 15nM, duplicate wells; ratios below 10 = good binding; reference peptide […]
Description: (§1) Quantitative peptide-MHCII competition binding assays were carried out to determine binding avidities of the 18 20-mer FVIII peptides to 6 HLA-DRB1. Data are presented as ratio between reference peptide IC50/FVIII-peptide IC50 tested. Briefly, non-biotinylated FVIII peptides have been diluted at a concentration of 20 mM in DMSO. 10-µl aliquots of serially diluted (90.000nM – 0.9nM in n-Octyl b-D-Glucopyranoside, 2.5 mg/ml in 1x phosphate buffer, pH 5.9) of non-biotinylated FVIII peptides, were added to duplicate wells of 96-well polypropylene plates. Serially diluted non-FVIII reference peptides known to bind to the specific HLA-DRB1 were added to separate wells as positive controls. Next, the biotinylated peptide at a concentration of 2mM was use to prepare 1000-fold pre-dilution to reach a final concentration of 15nM. The HLA-DRB1 proteins were diluted to 30 nM in n-Octyl β-D-Glucopyranoside, 2.5 mg/ml in 1x phosphate buffer, pH 5.9. […] SA-HRP (diluted 5000x in 1xPBS 0.1% Tween20) was added to each well. The plates were covered and incubated at room temperature for 60 min […] and washed. TMB (100 μl/well) was then added, and the plates were incubated at room temperature for 15-30 min. ELISA stopping solution (0.5M H2SO4) was added and then read on a FLUOstar OPTIMA fluorometer. Sigmoidal binding curves were simulated and IC50 values calculated for the FVIII peptides, based on their competition with the reference peptides for each HLA-DRB1. Data were reported as the ratio between the values of the tested peptide and of the reference peptide. Ratios below 10 correspond to good biding affinity.

[3] = molecular target: HLA-DRB1*0401 (Homo sapiens, UniProt P01903+P01911, A100K/A169T/F76Y/I96L/K127E/L162R/M171V/N62H/P40V/Q125Y/R42H/S133A/S149N/S66Y/V115G/V209L/W38E); test: Peptide-MHCII competition binding assay; details: competition ELISA, pH 5.9, peptide 90.000nM – 0.9nM, HLA-DRB1 30 nM, biotinylated peptide 15nM, duplicate wells; ratios below 10 = good binding; reference peptide […]
Description: as §1

[4] = molecular target: HLA-DRB1*0701 (Homo sapiens, UniProt P01903+P01911, A100R/A102G/A103Q/D57E/D86V/E43K/F76Y/K127E/L162R/M171V/P40G/Q125H/Q99D/R33Q/R42Y/R54Q/S133A/S66F/T210M/V115G/Y107V/Y59L/Y89S); test: Peptide-MHCII competition binding assay; details: competition ELISA, pH 5.9, peptide 90.000nM – 0.9nM, HLA-DRB1 30 nM, biotinylated peptide 15nM, duplicate wells; ratios below 10 = good binding; reference peptide PVDLHAFLSQAVFS
Description: as §1

[5] = molecular target: HLA-DRB1*0101 (Homo sapiens, UniProt P01903+P01911, A100R/D57E/F55L/F60I/F76Y/I96L/L162R/M171V/P40L/Q125E/R42F/V115G/Y59C); test: Peptide-MHCII competition binding assay; details: competition ELISA, pH 5.9, peptide 90.000nM – 0.9nM, HLA-DRB1 30 nM, biotinylated peptide 15nM, duplicate wells; ratios below 10 = good binding; reference peptide […]
Description: as §1

YDTVVITLKNMASHPVSLHA [P100-119, 20-mer FVIII peptide, A1 domain]
nb positive T cell lines ([1]; across all 16 donors): 44
cumulative donor coverage (%) ([1]; cumulative over peptides ranked by donor coverage): 81%
Donor coverage ( %) ([1]; of 16 donors): 69%
responding donors ([1]; of 16 healthy donors, individual peptide 10 µg/ml): 11
response intensity ( %) ([1]; percentage of 872 FVIII-specific T cell lines): 5,05%
Ratio IC50 DRB1*1101 [2]: 2
Ratio IC50 DRB1*0401 [3]: 17
Ratio IC50 DRB1*0701 [4]: 3
Ratio IC50 DRB1*0101 [5]: 226
